The record followed here is ChEMBL document CHEMBL3407435, “N-Methyl-N-((1-methyl-5-(3-(1-(2-methylbenzyl)piperidin-4-yl)propoxy)-1H-indol-2-yl)methyl)prop-2-yn-1-amine, a new cholinesterase and monoamine oxidase dual inhibitor” (J Med Chem, 2014).

pIC50: −log10 of the molar value. Activity calls are given as the source filed them. The rule behind the calls is not given here.

Data set [1] concerns the target T1, Amine oxidase [flavin-containing] B (Homo sapiens, UniProt P27338).
T1 sequence (P27338 whole entry): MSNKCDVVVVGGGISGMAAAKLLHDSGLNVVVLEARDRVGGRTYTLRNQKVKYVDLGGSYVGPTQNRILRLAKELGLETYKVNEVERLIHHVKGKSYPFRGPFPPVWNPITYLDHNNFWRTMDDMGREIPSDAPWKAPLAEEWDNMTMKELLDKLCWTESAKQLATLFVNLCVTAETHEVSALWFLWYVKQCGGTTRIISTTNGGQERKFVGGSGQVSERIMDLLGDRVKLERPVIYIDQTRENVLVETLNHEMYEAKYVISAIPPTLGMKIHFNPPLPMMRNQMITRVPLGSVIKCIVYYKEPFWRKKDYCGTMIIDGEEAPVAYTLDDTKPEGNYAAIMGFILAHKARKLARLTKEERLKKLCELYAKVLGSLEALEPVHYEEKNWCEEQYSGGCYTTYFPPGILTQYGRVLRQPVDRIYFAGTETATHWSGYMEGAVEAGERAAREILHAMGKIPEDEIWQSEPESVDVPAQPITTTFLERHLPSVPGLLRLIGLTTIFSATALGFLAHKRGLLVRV
Description: Inhibition of human MAO-B expressed in baculovirus infected BTI insect cells preincubated for 15 mins. The data set is classed as cell-based.

The target in data set [2] is T2, Amine oxidase [flavin-containing] A (Homo sapiens, UniProt P21397).
T2 sequence (P21397 whole entry): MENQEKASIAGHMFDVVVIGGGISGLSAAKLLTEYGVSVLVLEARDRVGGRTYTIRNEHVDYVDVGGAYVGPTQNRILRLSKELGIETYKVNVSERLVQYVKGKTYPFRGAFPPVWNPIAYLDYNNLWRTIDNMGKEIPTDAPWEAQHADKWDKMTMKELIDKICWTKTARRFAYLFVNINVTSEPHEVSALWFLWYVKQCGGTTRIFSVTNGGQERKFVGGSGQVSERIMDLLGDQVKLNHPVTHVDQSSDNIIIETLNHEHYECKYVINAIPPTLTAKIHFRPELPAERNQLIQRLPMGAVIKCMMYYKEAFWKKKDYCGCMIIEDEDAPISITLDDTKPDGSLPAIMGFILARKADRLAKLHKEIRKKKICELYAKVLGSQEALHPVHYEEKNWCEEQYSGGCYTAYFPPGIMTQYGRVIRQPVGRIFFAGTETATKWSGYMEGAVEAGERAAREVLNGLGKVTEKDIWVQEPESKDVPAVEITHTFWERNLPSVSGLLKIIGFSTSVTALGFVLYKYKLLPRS
Briefly: Inhibition of human MAO-A expressed in baculovirus infected BTI insect cells preincubated for 15 mins.

Data set [3] concerns the target T3, Cholinesterase (Homo sapiens, UniProt P06276). Description: Inhibition of recombinant human BuChE expressed in HEK293 cells preincubated at 100 uM for 15 mins. The data set is classed as cell-based.
Data set [4] concerns the target T4, Acetylcholinesterase (Homo sapiens, UniProt P22303). Briefly: Inhibition of recombinant human AChE expressed in HEK293 cells preincubated at 100 uM for 15 mins. The data set is classed as cell-based.
The target in data set [5] is T3, Cholinesterase. Description: Inhibition of recombinant human BuChE expressed in HEK293 cells preincubated for 15 mins. In kind it is cell-based.
Data set [6] concerns the target T4, Acetylcholinesterase. Briefly: Inhibition of recombinant human AChE expressed in HEK293 cells preincubated for 15 mins. In kind it is cell-based.
In a further data set the test system is HEK293. Description: Selectivity ratio of IC50 for recombinant human AChE expressed in HEK293 cells to IC50 for recombinant human BuChE expressed in HEK293 cells. The data set is classed as cell-based.
For the next data set, the species on record is Homo sapiens. Briefly: Selectivity ratio of IC50 for human MAO-A expressed in baculovirus infected BTI insect cells to IC50 for human MAO-B expressed in baculovirus infected BTI insect cells.
Data set [7] has as its target T2, Amine oxidase [flavin-containing] A. Description: Inhibition of human MAO-A expressed in baculovirus infected BTI insect cells preincubated at 100 uM for 15 mins.
Data set [8] concerns the target T1, Amine oxidase [flavin-containing] B. Briefly: Inhibition of human MAO-B expressed in baculovirus infected BTI insect cells preincubated at 100 uM for 15 mins.
Data set [9] has as its target T4, Acetylcholinesterase. Description: Inhibition of recombinant human AChE expressed in HEK293 cells assessed as enzyme recovery compound incubated at 10 times IC50 for 30 mins followed by 100 fold dilution relative to control. The data set is classed as cell-based. Also on record: scale not given: the % may be the effect or the level left.
Data set [10] deals with T2, Amine oxidase [flavin-containing] A. Description: Irreversible inhibition of human MAO-A expressed in baculovirus infected BTI insect cells compound incubated at 10 times IC50 for 30 mins followed by 100 fold dilution relative to control. The following applies: 0.5 h.
The target is the same in data set [11]. Description: Reversible inhibition of human MAO-A expressed in baculovirus infected BTI insect cells.
The nature of data set [12]: Permeability of the compound by PAMPA-BBB method in presence of PBS:ethanol at 70:30 ratio. The data set is classed as ADME. The following applies: read-out: permeability. Background: In PAMPA a lipid-coated filter parts donor from acceptor wells.
Data set [13] concerns the target T1, Amine oxidase [flavin-containing] B. Briefly: Irreversible inhibition of human MAO-B expressed in baculovirus infected BTI insect cells compound incubated at 10 times IC50 for 30 mins followed by 100 fold dilution relative to control. Conditions: 0.5 h.
For data set [14], the target named is T3, Cholinesterase. Briefly: Inhibition of recombinant human BuChE expressed in HEK293 cells assessed as enzyme recovery compound incubated at 10 times IC50 for 30 mins followed by 100 fold dilution relative to control. In kind it is cell-based. Also on record: scale not given: the % may be the effect or the level left.

T3 sequence (P06276 whole entry): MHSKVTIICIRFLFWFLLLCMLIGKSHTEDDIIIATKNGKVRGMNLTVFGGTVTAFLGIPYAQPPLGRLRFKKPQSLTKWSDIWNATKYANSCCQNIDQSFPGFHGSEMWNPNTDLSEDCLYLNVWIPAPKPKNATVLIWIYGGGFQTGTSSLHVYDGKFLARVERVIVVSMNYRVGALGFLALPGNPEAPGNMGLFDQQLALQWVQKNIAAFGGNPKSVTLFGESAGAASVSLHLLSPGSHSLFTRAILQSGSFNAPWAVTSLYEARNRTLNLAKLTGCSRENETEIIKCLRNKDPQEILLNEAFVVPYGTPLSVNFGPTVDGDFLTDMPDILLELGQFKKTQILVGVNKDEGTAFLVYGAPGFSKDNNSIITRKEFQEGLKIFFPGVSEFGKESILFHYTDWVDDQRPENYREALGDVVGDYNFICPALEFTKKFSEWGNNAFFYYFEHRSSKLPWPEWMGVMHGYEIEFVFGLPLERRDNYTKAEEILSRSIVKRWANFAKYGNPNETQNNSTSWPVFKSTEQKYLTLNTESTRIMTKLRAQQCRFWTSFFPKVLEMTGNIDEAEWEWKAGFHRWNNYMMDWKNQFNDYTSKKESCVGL
T4 sequence (P22303 whole entry): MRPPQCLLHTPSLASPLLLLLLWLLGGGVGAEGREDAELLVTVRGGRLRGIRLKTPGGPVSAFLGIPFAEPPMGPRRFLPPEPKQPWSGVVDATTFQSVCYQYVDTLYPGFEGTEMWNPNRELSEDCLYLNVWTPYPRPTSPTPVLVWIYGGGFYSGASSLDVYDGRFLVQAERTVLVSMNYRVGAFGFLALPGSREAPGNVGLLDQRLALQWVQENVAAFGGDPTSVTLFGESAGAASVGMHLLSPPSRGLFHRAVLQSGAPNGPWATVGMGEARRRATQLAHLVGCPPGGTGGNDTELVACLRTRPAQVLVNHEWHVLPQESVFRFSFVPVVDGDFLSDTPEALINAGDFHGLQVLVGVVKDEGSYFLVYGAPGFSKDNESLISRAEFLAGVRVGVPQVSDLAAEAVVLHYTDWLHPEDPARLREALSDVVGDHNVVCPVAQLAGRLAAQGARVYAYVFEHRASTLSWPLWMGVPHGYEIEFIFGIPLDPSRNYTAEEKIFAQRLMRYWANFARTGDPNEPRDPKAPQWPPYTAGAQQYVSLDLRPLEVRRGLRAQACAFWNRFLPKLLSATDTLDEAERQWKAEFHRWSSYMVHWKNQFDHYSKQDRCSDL

Take `C#CCN(C)Cc1cc2cc(OCc3ccc(OC)c4ncccc34)ccc2[nH]1`: the figures for the pIC50 in data set [1] and in data set [2] were 3.78 and 3.20, respectively. Besides, the inhibition result at Cholinesterase [3] and at Acetylcholinesterase [4] was “inactive” throughout.
With `C#CCNCc1cc2cc(OCCCC3CCN(Cc4ccccc4)CC3)ccc2[nH]1`, the pIC50 (commonly the IC50 on a negative log10 scale, so that one unit is a factor of ten) in [1] was 4.47; on Cholinesterase [5], 5.14; in data set [2], 4.72; at Acetylcholinesterase [6], 5.31. The results for the Ratio IC50 in the data set on HEK293 and in the data set filed under Homo sapiens were 0.67 and 0.57, respectively.
As for `C#CCN(C)Cc1cc2cc(OCCCC3CCN(Cc4ccc(OC(=O)N(C)C)c5ncccc45)CC3)ccc2n1C`, the pIC50 was 6.71 in data set [1], 5.23 on Cholinesterase [5], 6.59 in data set [2] and 5.08 at Acetylcholinesterase [6]. For the same compound, the Ratio IC50 is 1.4 in the data set on HEK293 and 1.3 in the data set listed under Homo sapiens.
`CCOC(=O)c1cc2cc(OCCCC3CCN(Cc4ccccc4)CC3)ccc2[nH]1`: the pIC50 is 6.00 in [1], 5.01 at Cholinesterase [5], 6.06 in data set [2] and 5.02 on Acetylcholinesterase [6]. Also, the Ratio IC50 with HEK293 is 0.99; in the data set listed under Homo sapiens it was 0.87.
Regarding `C#CCNCc1cc2cc(OCc3ccccc3)ccc2[nH]1`, the pIC50 in data set [1] was 8.39; in [2], 6.54. Further, the Ratio IC50 in the data set listed under Homo sapiens turned out to be 70.
Turning to `C#CCN(C)Cc1cc2cc(OCc3ccc(OC(=O)N(C)C)c4ncccc34)ccc2n1C`, the negative-log IC50 (pIC50) in [1] is 3.56; in [2] it was 3.51. In addition, the inhibition entry on Cholinesterase [3] and on Acetylcholinesterase [4] was “inactive” each time.
As to `C#CCN(C)Cc1ccc(OC(=O)N(C)C)c2ncccc12`, the pIC50 is 5.10 at Cholinesterase [5] and 6.28 on Acetylcholinesterase [6].
In the case of `OCc1cc2cc(OCCCC3CCN(Cc4ccccc4)CC3)ccc2[nH]1`, the negative-log IC50 (pIC50) in data set [1] is 4.87; at Cholinesterase [5] it was 4.51; in data set [2], 5.04; on Acetylcholinesterase [6] it was 4.87. Moreover, the Ratio IC50 with HEK293 was 0.43; in the data set filed under Homo sapiens, 0.67.
On to `C#CCN(C)Cc1cc2cc(OCCCC3CCN(Cc4ccccc4)CC3)ccc2[nH]1`, for which the pIC50 is 4.45 in [1], 5.15 at Cholinesterase [5], 5.04 in [2] and 4.81 on Acetylcholinesterase [6]. The Ratio IC50 amounted to 2.2 in the data set with HEK293 and 0.26 in the data set listed under Homo sapiens.
Consider `C#CCN(C)Cc1cc2cc(OCCCC3CCN(Cc4ccccc4)CC3)ccc2n1C`, for which the pIC50 was 5.92 in [1], 5.48 on Cholinesterase [5], 7.24 in data set [2] and 5.47 on Acetylcholinesterase [6]. The Ratio IC50 in the data set with HEK293 turned out to be 1.03; in the data set filed under Homo sapiens, 0.05.
As for `C=CCNCc1cc2cc(OCCCC3CCN(Cc4ccccc4)CC3)ccc2[nH]1`, the negative-log IC50 (pIC50) in data set [1] was 4.67; on Cholinesterase [5], 4.39; in data set [2] it was 4.34; at Acetylcholinesterase [6], 5.34. Also, the Ratio IC50 in the data set with HEK293 was 0.11; in the data set filed under Homo sapiens it was 2.1.
On to `C#CCN(C)Cc1cc2cc(OCCCC3CCN(Cc4ccc(OC)c5ncccc45)CC3)ccc2n1C`, for which the values for the pIC50 in [1] and in data set [2] were 5.10 and 4.99, respectively. The inhibition (usually the share of the control response that was lost under treatment) at Cholinesterase [3] is “inactive”. For the same compound, the inhibition at 100 µM in data set [7] and in data set [8] was 40% each time.
As to `C#CCN(C)Cc1cc2cc(OCCCC3CCN(Cc4ccccc4C)CC3)ccc2n1C`, the negative logarithm of the IC50 (pIC50) was 6.74 in data set [1], 5.31 on Cholinesterase [5], 5.20 in data set [11] and 5.55 on Acetylcholinesterase [6]. For the same compound, the Activity at Acetylcholinesterase [9] and on Cholinesterase [14] was 20% throughout. Besides, the “inhibition (INH)” value in [10] and in [13] was 90% throughout. Moreover, in [12], the Papp was 14.4 ×10⁻⁶ cm/s. Besides, the Ratio IC50 in the data set listed under Homo sapiens turned out to be 0.03.
